Measurements reported in US11903916B2, “Methods of using probenecid for treatment of coronavirus infections” (University of Georgia Research Foundation, Inc., priority 2020, dated 2024).
Read-outs that look alike come from different tables or passages of the source.

Experiments:
SARS-CoV-2 [1] = format: cell-based; conditions: for reduction in plaque formation compared to DMSO treated infected control: 24 h pre-treatment, Vero E6, MOI 0.01, 4 days
SARS-CoV-2 [2] = format: cell-based; conditions: for reduction in plaque formation compared to DMSO treated infected control: post-treatment after 1 hour infection, Vero E6, MOI 0.01, 4 days, FIG. 3

SMILES: CCCN(CCC)S(=O)(=O)c1ccc(C(=O)O)cc1 [Probenecid, 4-[(dipropylamino)sulfony1] benzoic acid]
- viral titer/plaque formation (SARS-CoV-2 [1]; 24 hour pretreatment at the concentrations tested): significantly reduces viral titer/plaque formation
- reduction in plaque formation compared to DMSO treated infected control (SARS-CoV-2 [1]; probenecid 0.0001 μM, another experiment, FIG. 2): ~50%
- reduction in plaque formation compared to DMSO treated infected control (SARS-CoV-2 [1]; probenecid 0.1 μM, FIG. 1): ~72%
- viral titer/plaque formation (SARS-CoV-2 [2]; post-treatment at the concentrations tested): significantly reduces viral titer/plaque formation
- reduction in plaque formation compared to DMSO treated infected control (SARS-CoV-2 [2]; probenecid 0.0001 μM): ~40%
- reduction in plaque formation compared to DMSO treated infected control (SARS-CoV-2 [2]; probenecid 5 μM): ~90%
